{
  "source": "patent EP0061711A1",
  "about": "“10B-Carboxyamino boranes, process for their preparation and their use as medicaments in the neutron-capture therapy” (priority 1981, dated 1982)",
  "key": {"[1]": {"assay": "toxicity compared with the compound of the invention (species not stated)"}, "water solubility": {"assay": "water solubility", "assay_type": "physicochemical", "settings": "for intravenous application"}, "[2]": {"assay": "boron accumulation in tumour tissue versus blood", "assay_type": "in vivo"}, "Sarkom 180": {"tested_on": "Sarkom 180", "assay": "sarcoma 180 in NMRI mice: tumour size and survival, alone or with gamma rays or thermal neutrons", "assay_type": "in vivo, NMRI-Mäuse", "settings": "for überlebende Tiere: 40 Tage after start of treatment", "description": "Die geringe Toxizität der erfindungsgemäß verwendeten Substanz ermöglicht eine so hohe Dosierung, daß sowohl eine begrenzte Eigenwirkung zum Tragen kommt als auch insbesondere eine ausreichende Erhöhung der ^10Bor-Konzentration in den erkrankten Zellen erreicht wird. So wurde festgestellt, daß die Toxizität bei der Maus i.p. eine DL50 um 2000 m^g/k^g ergibt. Pharmakologisch wurde festgestellt, daß N-Trimethyl-^10B-carboxyaminoboran den Einbau von 125 Jod -^desoxyuridin bei der gesunden Maus senkt. Weiterhin senkt es den Einbau von ^125Jod -desoxyuridin in das Sarkom 180 der Maus.\nBesonders eindrucksvoll ist die Veränderung der Überlebenszeiten der Sarkom 180 tragenden NMRI-Mäuse. Während 40 Tage nach Beginn der Behandlung von den unbehandelten und den nur mit Neutronen behandelten Tieren ca. 90% am Tumor gestorben sind, überleben zu diesem Zeitpunkt ca. 40% der nur mit N-Trimethyl-^10B-carboxy-aminoboran und ca. 75 % der mit dieser Substanz und Neutronen behandelten Tiere.\nEin Vergleich mit Natriumpentaborat und Neutronen zeigt, daß nur 20 bis 30 % der Sarkom-Tiere überleben.\n(§1) Diese pharmakologischen Befunde wurden zunächst noch mit einem N-Trimethyl- B-carboxy-aminoboran erhalten, welches nur 20 % ^10Bor enthielt. Durch Steigerung des ^10Bor-Gehalts auf 80 bis 90% erhöht sich die Antitumorwirkung durch Neutroneneinfang um das. 4 bis 5-fache: • C-57 BL/6j Mäuse mit Adenocarcinom EO 771 werden in drei Gruppen aufgeteilt: • Gruppe 1 dient als Kontrolle Gruppe 2 wird 6 Minuten mit thermischen Neutronen bestrahlt Gruppe 3 erhält 10 mg N-Trimethyl-^10B-carboxyaminoboran intraperitonal (i.p.) und wird nach 6 Stunden - dem Zeitpunkt der optimalen Anreicherung im Tumorgewebe - für 6 Minuten mit thermischen Neutronen bestrahlt."}, "Adenocarcinom EO 771": {"tested_on": "Adenocarcinom EO 771", "assay": "adenocarcinoma EO 771 in C-57 BL/6j mice, neutron capture therapy", "assay_type": "in vivo, C-57 BL/6j Mäuse", "settings": "10 mg i.p., after 6 Stunden 6 Minuten thermische Neutronen", "description": "as §1"}, "gesunden Maus": {"tested_on": "gesunden Maus", "assay": "incorporation of 125I-deoxyuridine in the healthy mouse", "assay_type": "in vivo", "settings": "gesunde Maus"}, "Sarkom 180 der Maus": {"tested_on": "Sarkom 180 der Maus", "assay": "incorporation of 125I-deoxyuridine into sarcoma 180 of the mouse", "assay_type": "in vivo", "settings": "in Sarkom 180 der Maus"}, "[3]": {"assay": "acute toxicity (DL50) in the mouse, i.p.", "settings": "in vivo, ip, Maus"}, "[4]": {"assay": "therapeutic results in combination with neutrons (model not stated)", "settings": "in Verbindung mit Neutronen, compared with N-Trimethyl-10B-carboxyaminoboran"}},
  "data": [
    {"molecule": "Natriummonomercaptoundecahydrodecaborat", "values": [
      {"measurement": "toxicity relative to the compound of the invention", "setting": "[1]", "value": "~5", "unit": "mal"}
    ]},
    {"molecule": "C[N+](C)(C)[10BH2-]C(=O)O", "note": "[N-Trimethyl-^10B-carboxyaminoboran]", "values": [
      {"measurement": "Wasserlöslichkeit", "setting": "water solubility", "value": "ausreichend wasserlöslich"},
      {"measurement": "Kp", "setting": "[2]; tumour to blood, 6 bis 12 Stunden after intravenous injection, read-out: Bor-Konzentration im Tumor relative to Blut", "value": "2 to 3"},
      {"measurement": "Tmax", "setting": "[2]; tumour, ip, after i.p. application, read-out: Zeitpunkt der optimalen Anreicherung im Tumorgewebe", "value": 6, "unit": "h"},
      {"measurement": "überlebende Tiere", "setting": "Sarkom 180; substance alone", "value": "ca. 40%"},
      {"measurement": "überlebende Tiere", "setting": "Sarkom 180; substance and Neutronen", "value": "ca. 75%"},
      {"measurement": "Tumorgröße", "setting": "Sarkom 180; Sarkom 180 der Maus, substance alone", "value": "Verkleinerung des Tumors"},
      {"measurement": "Tumorwachstum", "setting": "Sarkom 180; combination with γ-Strahlen", "value": "positiv beeinflußt"},
      {"measurement": "Tumorvolumen", "setting": "Sarkom 180; simultaneous treatment with thermischen Neutronen", "value": "wesentlich stärker verkleinert als durch die Einzelkomponenten"},
      {"measurement": "Tumorgröße", "setting": "Adenocarcinom EO 771", "value": "nimmt der Tumor in Gruppe 3 nach der kombinierten Behandlung an Größe ab"},
      {"measurement": "time until tumour is reduced to a minimum", "setting": "Adenocarcinom EO 771", "value": "~7", "unit": "Tagen"},
      {"measurement": "Einbau von 125Jod -desoxyuridin", "setting": "gesunden Maus", "value": "senkt"},
      {"measurement": "Einbau von 125Jod -desoxyuridin", "setting": "Sarkom 180 der Maus", "value": "senkt"},
      {"measurement": "LD50", "setting": "[3]", "value": "~2000", "unit": "mg/kg"}
    ]},
    {"molecule": "C[N+](C)(C)[BH2-]C(=O)O", "note": "[N-Trimethyl- B-carboxy-aminoboran, reference compound]", "values": [
      {"measurement": "lokale oder systemische Schäden", "setting": "Sarkom 180; surviving animals", "value": "An keinem der überlebenden Tiere wurden lokale oder systemische Schäden beobachtet"}
    ]},
    {"molecule": "[NH3+][10BH2-]C(=O)O", "note": "[Ammoniak- ^10B-carboxyboran, Ammoniak- ^10 B-carboxyboran]", "values": [
      {"measurement": "LD50", "setting": "[3]", "value": "~2500", "unit": "mg/kg"},
      {"measurement": "therapeutische Ergebnisse", "setting": "[4]", "value": "Noch bessere therapeutische Ergebnisse"}
    ]}
  ]
}
